From paper PMC12486805, “Preclinical evaluation of tridecaptin M: in vitro and in vivo efficacy against colistin-resistant Gram-negative bacterial pathogens and pharmacokinetics” (Antimicrobial Agents and Chemotherapy, 2025)
Where two headings read alike, the source gives them in different places. Where a SMILES comes first, the peptide text is derived from it. [ ]: non-standard residue; d: D form. The star is where a group is joined. d(aIle) = CC[C@H](C)[C@@H](N)C(=O)O; X1 = CC[C@H](C)CCCCC(=O)*; dDab = NCC[C@@H](N)C(=O)O; Dab = NCC[C@H](N)C(=O)O

Legend:
[1] = tested on: K. pneumoniae ATCC 700603; conditions: ATCC 700603, 48 h
Protocol: LB, TSB, TSB + 1% Glucose, M63, and the M63 media were selected for biofilm experiments ([20], [30], [31]). With some modifications from previous methods, employing CV staining, K. pneumoniae cells were grown in M63 salt media at 37°C, 200 rpm shaking conditions overnight. […] Following incubation, the media and planktonic cells were gently removed, and the wells with adhered biofilm were washed three times with 0.9% saline. […] The biofilm inhibition was calculated as the percentage of biofilm remaining after treatment using the formula:
Biofilms remaining (%)=OD595 (sample)/OD595 (control)×100%

hERG channel = biological target: T1, hERG channel (Homo sapiens, UniProt Q12809); test: hERG channel inhibition, patch clamp on HEK293 cells expressing hERG; format: cell-based
T1 construct: expressed in transfected cells; host or cells: HEK293
Protocol: The experiment starts upon reaching a resistance of 2-3.5 MOhm. A 5 µL cell suspension is added after generating a suction pulse to capture a cell, increasing resistance to 5 MOhm, and triggering the sealing step. […] A hERG protocol measures ion current every 10 s with voltage steps: holding at −80 mV, depolarizing to +40 mV, and repolarizing to −40 mV. Stable current is achieved in ~2 min. […]

CYP2C19 = CYP2C19 (Homo sapiens, UniProt P33261); test: CYP inhibition assay, recombinant isoform, fluorescence; format: biochemical
Protocol: (§1) The CYP inhibition assay was performed for test/control inhibitor items in duplicates using a 96-well fluorescence plate. An example of the preparation of CYP inhibition is given below in Table 8.
(§2) The plate with CYP master premix with test/control was incubated to allow the test/control samples to interact with CYP enzyme for 10 ± 1 min at 25°C under shaking conditions (400 rpm) using Thermomixer. The assay was initiated by adding 10 µL of a substrate and NADP^+ mixture to all wells, including a vehicle control and an assay blank. […] After incubation, the reaction was quenched by adding 50 µL of stop reagent (0.5 M Tris base) to each well.

CYP2D6 = CYP2D6 (Homo sapiens, UniProt P10635); test: as above; format: biochemical
Protocol: as §1, §2

CYP3A4 = CYP3A4 (Homo sapiens, UniProt P08684); test: as above; format: biochemical
Protocol: as §1, §2

[2] = Protocol: Acute toxicity was performed on Balb/c female mice, 8 weeks old. This study was adopted and modified from a study described previously ([39]). Initial screening was done with 100 mg/kg, 200 mg/kg, 400 mg/kg, and 600 mg/kg doses of tridecaptin M and vehicle control (100% DMSO). […] Eight mice were taken, four in each group ([…]), one group was administered vehicle control (DMSO), and the other group was administered 600 mg/kg of tridecaptin M. After 3 days, blood was collected to obtain serum for biochemical tests, and mice were euthanized to remove organs (preserved in 10% formalin) for histopathological analysis.
[3] = mouse liver microsomes
Remark: listed apart in the source
in vitro [4] = conditions: human, plasma
Protocol: Plasma protein binding was assessed using the rapid equilibrium dialysis (RED) method, utilizing RED insert devices with a dialysis membrane featuring an 8,000 Dalton molecular weight cutoff for proteins. The test/control items in human, rat, and mouse plasma were prepared at a test concentration of 10 µM using 10 mM DMSO stocks, and the samples were added to the plasma chamber of the RED insert. The device was sealed with tape and incubated in a thermomixer at 37°C with shaking at 300 rpm for 4 h. Following incubation, a 50 µL aliquot of plasma and buffer was collected from each insert and diluted with an equal volume of the opposite matrix to mitigate matrix effects. The samples were quantified using LC-MS/MS analysis and were tested in duplicates.

in vitro [5] = conditions: mouse, microsomes
Protocol: (§3) For without cofactors, 20 µL of PBS was added instead of pre-incubated cofactors. […] At each specified time, a 100 µL sample was taken, processed through a sample extraction procedure, and submitted for LC-MS/MS analysis ([35]). Half-life (t1/2) of test/control items was determined using the following equation
(§4) where, elimination rate constant (k) = −(slope of linear regression curve).

in vitro [6] = conditions: rat, microsomes
Protocol: as §3, §4

in vitro [7] = conditions: human, microsomes, pH 7.4
Protocol: as §3, §4

[8] = 12 mg/kg every 2 h up to 12 h, total 72 mg/kg; cited from earlier work
mammalian cell lines = conditions: cited from earlier work
[9] = 14-day repeat dose toxicity in mice; conditions: 15 mg/kg/day in two s.c. doses, 14 days
Protocol: Organs were fixed in 10% formalin for histopathology, and the serum was centrifuged from whole blood. The blood was left undisturbed for 20 min and centrifuged at 1,000 × g for 10 min to isolate serum for biochemical tests of the kidney and liver toxicity evaluation ([22]).

[10] = subcutaneous, 5 mg/kg b.w., plasma

CYP3A4, sequence (P08684 whole entry): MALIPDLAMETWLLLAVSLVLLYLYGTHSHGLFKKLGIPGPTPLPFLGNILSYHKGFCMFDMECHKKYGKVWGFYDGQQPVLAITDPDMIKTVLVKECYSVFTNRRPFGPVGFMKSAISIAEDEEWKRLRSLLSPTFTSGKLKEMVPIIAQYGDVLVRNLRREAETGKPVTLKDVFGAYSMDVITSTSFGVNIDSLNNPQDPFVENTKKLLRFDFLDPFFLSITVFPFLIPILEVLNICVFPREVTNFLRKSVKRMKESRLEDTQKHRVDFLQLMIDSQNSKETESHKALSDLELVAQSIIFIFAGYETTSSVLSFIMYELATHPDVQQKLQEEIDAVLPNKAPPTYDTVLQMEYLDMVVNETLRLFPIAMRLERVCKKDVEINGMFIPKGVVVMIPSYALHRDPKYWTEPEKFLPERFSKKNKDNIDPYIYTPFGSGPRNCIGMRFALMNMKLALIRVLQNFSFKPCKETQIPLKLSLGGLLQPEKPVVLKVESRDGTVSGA
T1 sequence (Q12809 whole entry): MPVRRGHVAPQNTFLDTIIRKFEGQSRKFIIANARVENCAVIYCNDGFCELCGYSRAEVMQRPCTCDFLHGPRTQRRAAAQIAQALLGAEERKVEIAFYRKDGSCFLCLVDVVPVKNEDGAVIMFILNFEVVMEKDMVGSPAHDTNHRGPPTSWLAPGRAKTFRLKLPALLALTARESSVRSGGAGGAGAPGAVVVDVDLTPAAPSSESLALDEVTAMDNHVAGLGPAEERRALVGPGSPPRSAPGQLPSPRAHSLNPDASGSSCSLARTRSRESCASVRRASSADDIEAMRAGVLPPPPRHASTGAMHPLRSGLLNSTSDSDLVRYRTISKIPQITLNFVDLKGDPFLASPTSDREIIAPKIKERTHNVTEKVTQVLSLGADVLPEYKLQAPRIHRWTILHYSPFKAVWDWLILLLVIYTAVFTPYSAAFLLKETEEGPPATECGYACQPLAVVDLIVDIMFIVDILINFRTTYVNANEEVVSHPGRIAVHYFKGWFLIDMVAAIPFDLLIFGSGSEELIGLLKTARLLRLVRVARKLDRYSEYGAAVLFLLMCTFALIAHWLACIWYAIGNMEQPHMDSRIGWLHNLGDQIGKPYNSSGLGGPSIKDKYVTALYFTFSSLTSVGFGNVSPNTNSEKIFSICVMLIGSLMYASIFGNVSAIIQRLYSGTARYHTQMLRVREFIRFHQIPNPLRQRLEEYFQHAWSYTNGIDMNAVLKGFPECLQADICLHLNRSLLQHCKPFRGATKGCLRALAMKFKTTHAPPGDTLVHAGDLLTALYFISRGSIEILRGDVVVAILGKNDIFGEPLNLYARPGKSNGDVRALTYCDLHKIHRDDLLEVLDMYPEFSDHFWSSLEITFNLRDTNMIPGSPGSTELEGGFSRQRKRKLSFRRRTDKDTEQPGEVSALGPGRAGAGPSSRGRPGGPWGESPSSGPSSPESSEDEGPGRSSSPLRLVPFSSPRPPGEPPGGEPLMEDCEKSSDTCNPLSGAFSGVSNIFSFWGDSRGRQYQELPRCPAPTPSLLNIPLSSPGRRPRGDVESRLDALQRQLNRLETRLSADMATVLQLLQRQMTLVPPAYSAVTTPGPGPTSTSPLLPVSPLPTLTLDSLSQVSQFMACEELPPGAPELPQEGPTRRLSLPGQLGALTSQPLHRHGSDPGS
CYP2D6, sequence (P10635 whole entry): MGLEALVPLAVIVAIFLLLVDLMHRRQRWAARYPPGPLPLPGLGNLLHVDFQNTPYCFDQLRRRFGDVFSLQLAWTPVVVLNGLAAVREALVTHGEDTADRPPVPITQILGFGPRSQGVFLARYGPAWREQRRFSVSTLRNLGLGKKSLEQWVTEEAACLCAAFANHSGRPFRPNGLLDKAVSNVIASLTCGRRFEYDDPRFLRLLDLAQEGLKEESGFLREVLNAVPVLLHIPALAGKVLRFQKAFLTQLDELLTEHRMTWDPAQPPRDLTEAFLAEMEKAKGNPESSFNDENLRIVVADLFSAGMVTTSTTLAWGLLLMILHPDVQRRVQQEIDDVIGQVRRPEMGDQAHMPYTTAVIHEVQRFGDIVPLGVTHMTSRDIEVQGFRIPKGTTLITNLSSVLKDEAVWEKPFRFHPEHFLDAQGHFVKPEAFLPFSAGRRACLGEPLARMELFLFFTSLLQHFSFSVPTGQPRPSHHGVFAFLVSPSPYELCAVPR
CYP2C19, sequence (P33261 whole entry, canonical isoform): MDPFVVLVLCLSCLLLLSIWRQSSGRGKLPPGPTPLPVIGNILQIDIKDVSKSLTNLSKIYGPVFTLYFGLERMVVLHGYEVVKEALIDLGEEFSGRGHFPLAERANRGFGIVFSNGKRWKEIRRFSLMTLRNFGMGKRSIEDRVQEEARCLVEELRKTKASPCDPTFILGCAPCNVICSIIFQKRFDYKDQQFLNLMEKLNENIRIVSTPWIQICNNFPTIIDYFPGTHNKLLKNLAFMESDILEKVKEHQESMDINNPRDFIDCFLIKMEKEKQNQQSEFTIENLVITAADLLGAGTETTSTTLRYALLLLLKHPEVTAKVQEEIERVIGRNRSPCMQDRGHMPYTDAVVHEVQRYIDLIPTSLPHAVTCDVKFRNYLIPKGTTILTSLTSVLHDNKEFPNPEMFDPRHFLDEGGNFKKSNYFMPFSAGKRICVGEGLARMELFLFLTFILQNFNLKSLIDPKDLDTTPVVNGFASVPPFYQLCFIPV

In the case of `CC[C@H](C)CCCCC(=O)NCC(=O)N[C@H](CCN)C(=O)NCC(=O)N[C@H](CO)C(=O)N[C@H](Cc1c[nH]c2ccccc12)C(=O)N[C@@H](CO)C(=O)N[C@@H](CCN)C(=O)N[C@H](CCN)C(=O)N[C@H](C(=O)N[C@@H](CCC(=O)O)C(=O)N[C@H](C(=O)N[C@@H](C(=O)N[C@@H](CO)C(=O)O)[C@@H](C)CC)[C@@H](C)CC)[C@@H](C)CC` [Tridecaptin M, tridecaptin M] (X1-G[dDab]G[dS][dW]S[Dab][dDab]IEI[d(aIle)]S-OH), the “% Biofilm remaining (biofilm inhibition)” value [1]; 1 is reported as 29.6%, the “% Biofilm remaining (biofilm inhibition)” value [1]; 2 is reported as 7.0% and the “% Biofilm remaining (biofilm inhibition)” value [1]; 5 is reported as 0.5%. For the same compound, the Mean current (hERG channel; 0.1 µM) was 4.41E-10 A, the Mean current (hERG channel; 0.3 µM) was 4.66E-10 A and the Mean current (hERG channel; 1 µM) was 4.64E-10 A. The Mean current (hERG channel; 3 µM) was 4.58E-10 A, the Mean current (hERG channel; 10 µM) was 4.34E-10 A and the Mean current (hERG channel; 30 µM) was 4.68E-10 A. For the same compound, the “inhibition of the hERG channel” value (hERG channel; concentrations up to 30 µM (44.6 µg/mL)) was “no significant inhibition”, the inhibition at 0.1 µM (hERG channel; human, HEK293 cells expressing hERG, pH 7.4, 0.1 µM) was -0.37% and the inhibition at 0.3 µM (hERG channel; human, HEK293 cells expressing hERG, pH 7.4, 0.3 µM) was -5.86%. The inhibition at 1 µM (hERG channel; human, HEK293 cells expressing hERG, pH 7.4, 1 µM) was -5.54%, the inhibition at 3 µM (hERG channel; human, HEK293 cells expressing hERG, pH 7.4, 3 µM) was -4.07% and the inhibition at 10 µM (hERG channel; human, HEK293 cells expressing hERG, pH 7.4, 10 µM) was 1.37%. The inhibition at 30 µM (hERG channel; human, HEK293 cells expressing hERG, pH 7.4, 30 µM) was -6.44%, the IC50 (CYP2C19) was > 30 µM and the inhibition at 25 min, 0.01 µM (CYP2C19; human) was < 0%. For the same compound, the inhibition at 25 min, 0.03 µM (CYP2C19; human) was < 0%, the inhibition at 25 min, 0.1 µM (CYP2C19; human) was < 0% and the inhibition at 25 min, 0.3 µM (CYP2C19; human) was < 0%. The inhibition at 25 min, 1 µM (CYP2C19; human) was < 0%, the inhibition at 25 min, 3 µM (CYP2C19; human) was 0.13% and the inhibition at 25 min, 10 µM (CYP2C19; human) was 5.67%. The inhibition at 25 min, 30 µM (CYP2C19; human) was 11.7%, the IC50 (CYP2D6) was > 30 µM and the inhibition at 25 min, 0.01 µM (CYP2D6; human) was < 0%. The inhibition at 25 min, 0.03 µM (CYP2D6; human) was < 0%, the inhibition at 25 min, 0.1 µM (CYP2D6; human) was < 0% and the inhibition at 25 min, 0.3 µM (CYP2D6; human) was < 0%. The inhibition at 25 min, 1 µM (CYP2D6; human) was < 0%, the inhibition at 25 min, 3 µM (CYP2D6; human) was 1.28% and the inhibition at 25 min, 10 µM (CYP2D6; human) was 10.9%. The inhibition at 25 min, 30 µM (CYP2D6; human) was 13.1%, the IC50 (CYP3A4) was > 30 µM and the inhibition at 25 min, 0.01 µM (CYP3A4; human) was < 0%. For the same compound, the inhibition at 25 min, 0.03 µM (CYP3A4; human) was < 0%, the inhibition at 25 min, 0.1 µM (CYP3A4; human) was < 0% and the inhibition at 25 min, 0.3 µM (CYP3A4; human) was < 0%. For the same compound, the inhibition at 25 min, 1 µM (CYP3A4; human) was 3.77%, the inhibition at 25 min, 3 µM (CYP3A4; human) was 9% and the inhibition at 25 min, 10 µM (CYP3A4; human) was 28%. The inhibition at 25 min, 30 µM (CYP3A4; human) was 26.6%, the “SGPT (serum)” value ([2]; 600 mg/kg s.c., female mouse TF-2, day 3) was 112 Units/L and the mortality ([2]; single s.c. dose 100-600 mg/kg) was “No mortality was observed”. The “histopathology of heart, kidney, liver, brain, spleen” value ([2]; single s.c. dose 100-600 mg/kg, vs vehicle control) was “No signs of toxicity or pathological changes”, the “dose up to which safety is confirmed” value ([2]; subcutaneous administration) was “up to 600 mg/kg” and the CL [3] was <11.55 µL/min/mg. The “Cmax relative to the MIC value” (intravenous, 5mg/kg b.w.) was “about 10 times”, the “time plasma concentration maintained above MIC (4µg/mL)” value (intravenous, 5mg/kg b.w.) was “about 4 h” and the Cmax (intravenous, 5 mg/kg b.w., plasma, 5 mg/kg) was 43200 ± 6020 ng/mL. It also gave a CL [10] of 4.95 ± 0.24 mL/min/kg, a Vss [10] of 2.63 ± 0.45 L/kg and a T1/2 (subcutaneous, 5 mg/kg b.w., plasma, 5 mg/kg) of 8.56 ± 1.60 h. For the same compound, the fraction unbound at 4 h, 10 µM (in vitro [4]) was 0.227, the half-life (in vitro [5]; pH 7.4) was > 2 h and the remaining at 0.25 h (in vitro [5]; pH 7.4) was 82.4%. For the same compound, the remaining at 0.5 h (in vitro [5]; pH 7.4) was 83.8%, the remaining at 1 h (in vitro [5]; pH 7.4) was 88.1% and the remaining at 2 h (in vitro [5]; pH 7.4) was 74.7%. For the same compound, the microsomal CLint (in vitro [5]; pH 7.4, CL, mouse liver microsomes) was < 11 µL/min/mg, the half-life (in vitro [6]; pH 7.4) was > 2 h and the remaining at 0.25 h (in vitro [6]; pH 7.4) was 86.4%. It also gave a remaining at 0.5 h (in vitro [6]; pH 7.4) of 76.5%, a remaining at 1 h (in vitro [6]; pH 7.4) of 70.1% and a remaining at 2 h (in vitro [6]; pH 7.4) of 58.8%. The microsomal CLint (in vitro [6]; pH 7.4, CL, rat liver microsomes) was < 11 µL/min/mg, the half-life (in vitro [7]) was 1.31 h and the microsomal CLint (in vitro [7]) was 17.6 µL/min/mg. The remaining at 0.25 h (in vitro [7]) was 58%, the remaining at 0.5 h (in vitro [7]) was 50.2% and the remaining at 1 h (in vitro [7]) was 53.7%. The remaining at 2 h (in vitro [7]) was 48.4%, the “tolerance in acute toxicity study” value [8] was “good tolerance” and the cytotoxicity (mammalian cell lines) was “non-cytotoxic”. The “ALP (serum)” value [9] was 77.33 ± 27.47 U/L, the “Albumin (serum)” value [9] was 2.60 ± 0.47 g/dL and the “BBilirubin (serum)” value [9] was 0.31 ± 0.06 mg/dL. For the same compound, the “BUN (serum)” value [9] was 35.33 ± 11.43 mg%, the “Calcium (serum)” value [9] was 7.76 ± 2.19 mg% and the “Creatinine (serum)” value [9] was 0.41 ± 0.026 mg%. The “Globulin (serum)” value [9] was 3.53 ± 0.83 g/dL, the “Phosphorous (serum)” value [9] was 7.36 ± 1.27 mg% and the “Proteins (serum)” value [9] was 6.13 ± 1.06 g/dL. For the same compound, the “SGOT (serum)” value [9] was 657.33 ± 141.06 Units/L, the “SGPT (serum)” value [9] was 103.67 ± 40.70 Units/L and the “Uric acid (serum)” value [9] was 4.6 ± 1.89 mg%. For the same compound, the “histopathological analysis of liver and kidneys” value [9] was “no signs of toxicity”.
